From BindingDB's records for doi:10.1021/jm00157a006 (1987)
Non-standard residues stand in square brackets, D forms with d. Residues, ends and D or L forms follow the SMILES beside them. *: point of attachment. Ala(1-Adamantyl) = N[C@@H](CC12CC3CC(CC(C3)C1)C2)C(=O)O; Sta = CC(C)C[C@H](N)[C@@H](O)CC(=O)O; Cbz = O=C(OCc1ccccc1)*; Boc = CC(C)(C)OC(=O)*

Tests used:
[1] = target: Renin (Sus scrofa); experiment: In vitro inhibitory activity against hog plasma renin
[2] = target: Renin (Sus scrofa); experiment: Inhibition of hog […] plasma renin activity

SMILES: COC(=O)C[C@H](O)[C@H](CC(C)C)NC(=O)[C@H](C)NC(=O)C[C@H](O)[C@H](CC(C)C)NC(=O)[C@H](Cc1c[nH]cn1)NC(=O)[C@H](CC12CC3CC(CC(C3)C1)C2)NC(=O)OC(C)(C)C [4-(2-{4-[2-(3-Adamantan-1-yl-2-tert-butoxycarbonylamino-propionylamino)-3-(1H-imidazol-4-yl)-propionylamino]-3-hydroxy-6-methyl-heptanoylamino}-propionylamino)-3-hydroxy-6-methyl-heptanoic acid methyl ester] (Boc-[Ala(1-Adamantyl)]H[Sta]A[Sta]-OMe)
- IC50 [1]: 0.6 µM

SMILES: COC(=O)C[C@H](O)[C@H](CC(C)C)NC(=O)[C@H](C)NC(=O)C[C@H](O)[C@H](CC(C)C)NC(=O)[C@H](Cc1ccccc1)NC(=O)[C@H](Cc1ccccc1)NC(=O)OC(C)(C)C [4-(2-{4-[2-(2-tert-Butoxycarbonylamino-3-phenyl-propionylamino)-3-phenyl-propionylamino]-3-hydroxy-6-methyl-heptanoylamino}-propionylamino)-3-hydroxy-6-methyl-heptanoic acid methyl ester]
- IC50 [1]: 0.052 µM

SMILES: COC(=O)C[C@H](O)[C@H](CC(C)C)NC(=O)[C@H](C)NC(=O)C[C@H](O)[C@H](CC(C)C)NC(=O)[C@@H](NC(=O)[C@H](Cc1c[nH]c2ccccc12)NC(=O)OCc1ccccc1)C(C)C [4-[2-(4-{2-[2-Benzyloxycarbonylamino-3-(1H-indol-3-yl)-propionylamino]-3-methyl-butyrylamino}-3-hydroxy-6-methyl-heptanoylamino)-propionylamino]-3-hydroxy-6-methyl-heptanoic acid methyl ester] (Cbz-WV[Sta]A[Sta]-OMe)
- IC50 [2]: 0.015 µM
